In US8178506B2, “Oligomeric compounds and compositions for use in modulation of small non-coding RNAs” (Regulus Therapeutics Inc., priority 2003, dated 2012):
In the oligonucleotide strings, read from the 5' end, every base follows the letter of its sugar. An asterisk marks phosphorothioate; unmarked linkages are phosphodiester. Other units and linkages are bracketed, terminal groups are in braces. A string of capitals states the bases alone. e = 2'-O-(2-methoxyethyl) (MOE); [5mC] = 5-methylcytosine

Tests used:
Type in all cases: cell-based, human
adipocytes = assay: Triglyceride accumulation assay in adipocytes
aP2 = aP2 mRNA expression in adipocytes (real-time PCR); conditions: for aP2 mRNA: Table 75
HSL = HSL mRNA expression in adipocytes (real-time PCR)
Glut4 = Glut4 mRNA expression in adipocytes (real-time PCR)
PPARγ = PPARγ mRNA expression in adipocytes (real-time PCR)
[1] = Table 17, differentiating adipocytes, control = treatment with ISIS 342673
[2] = differentiating adipocytes transfected with oligomeric compound, Table 75
[3] = differentiating adipocytes transfected with oligomeric compound
[4] = Table 18, differentiating adipocytes, control = treatment with ISIS 342673

Substance	TG (triglyceride accumulation) (adipocytes; [2])	aP2 mRNA (aP2; [3])	HSL mRNA (HSL; [2])	GLUT4 mRNA (Glut4; [2])	PPAR gamma mRNA (PPARγ; [2])	further results
328128 (antisense eA*eG*eT*eA*eA*e[5mC]*eT*eT*e[5mC]*eT*eT*eG*e[5mC]*eA*eG*eT*eT*eG*eG*eA) [compound 328128]	61 percentage of untreated control (UTC)	90 percentage of untreated control (UTC)	72 percentage of untreated control (UTC)	73 percentage of untreated control (UTC)	86 percentage of untreated control (UTC)	TG (triglyceride accumulation) (adipocytes; [1]): 98.7 percentage of control; AP2 mRNA (aP2; [1]): 100.7 percentage of control; HSL mRNA (HSL; [1]): 94.1 percentage of control; GLUT4 mRNA (Glut4; [1]): 101.9 percentage of control; PPAR gamma mRNA (PPARγ; [1]): 84.0 percentage of control
328130 (antisense eA*e[5mC]*e[5mC]*eT*e[5mC]*eA*eG*eG*eT*eG*eG*eT*eT*eG*eA*eA*eG*eG*eA*eG*eA) [compound 328130]	91 percentage of untreated control (UTC)	72 percentage of untreated control (UTC)	64 percentage of untreated control (UTC)	55 percentage of untreated control (UTC)	77 percentage of untreated control (UTC)	TG (triglyceride accumulation) (adipocytes; [1]): 122.4 percentage of control; AP2 mRNA (aP2; [1]): 86.6 percentage of control; HSL mRNA (HSL; [1]): 76.5 percentage of control; GLUT4 mRNA (Glut4; [1]): 83.8 percentage of control; PPAR gamma mRNA (PPARγ; [1]): 99.4 percentage of control
346908 (GCUUUGACAAUACUAUUGCACUG; all 2'-MOE, all phosphorothioate, methylation of C and T or U not given here) [compound 346908]	75 percentage of untreated control (UTC)	77 percentage of untreated control (UTC)	71 percentage of untreated control (UTC)	65 percentage of untreated control (UTC)	77 percentage of untreated control (UTC)	–
348124 (CACAAAUUCGGUUCUACAGGGUA; anti-miR; all 2'-MOE, all phosphorothioate, methylation of C and T or U not given here) [compound 348124]	53 percentage of untreated control (UTC)	59 percentage of untreated control (UTC)	43 percentage of untreated control (UTC)	41 percentage of untreated control (UTC)	63 percentage of untreated control (UTC)	–
348119 (UCCAUAAAGUAGGAAACACUACA; anti-miR; all 2'-MOE, all phosphorothioate, methylation of C and T or U not given here) [compound 348119]	91 percentage of untreated control (UTC)	81 percentage of untreated control (UTC)	76 percentage of untreated control (UTC)	86 percentage of untreated control (UTC)	90 percentage of untreated control (UTC)	–
344617 (GACGGGUGCGAUUUCUGUGUGAGA; all 2'-MOE, all phosphorothioate, methylation of C and T or U not given here) [compound 344617]	52 percentage of untreated control (UTC)	59 percentage of untreated control (UTC)	55 percentage of untreated control (UTC)	42 percentage of untreated control (UTC)	72 percentage of untreated control (UTC)	–
328118 (antisense eT*eA*eT*eT*eA*eT*e[5mC]*eA*eG*e[5mC]*eA*eT*e[5mC]*eT*eG*e[5mC]*eT*eT*eG*e[5mC]*eA) [compound 328118]	69 percentage of untreated control (UTC)	74 percentage of untreated control (UTC)	67 percentage of untreated control (UTC)	57 percentage of untreated control (UTC)	72 percentage of untreated control (UTC)	TG (triglyceride accumulation) (adipocytes; [1]): 69.3 percentage of control; AP2 mRNA (aP2; [1]): 92.7 percentage of control; HSL mRNA (HSL; [1]): 85.3 percentage of control; GLUT4 mRNA (Glut4; [1]): 76.6 percentage of control; PPAR gamma mRNA (PPARγ; [1]): 80.2 percentage of control
346915 (ACAUCGUUACCAGACAGUGUUA; all 2'-MOE, all phosphorothioate, methylation of C and T or U not given here) [compound 346915]	73 percentage of untreated control (UTC)	83 percentage of untreated control (UTC)	67 percentage of untreated control (UTC)	75 percentage of untreated control (UTC)	90 percentage of untreated control (UTC)	–
328112 (antisense eA*eT*e[5mC]*eA*eT*eT*eA*e[5mC]*eT*eG*eG*eA*eT*eT*eG*e[5mC]*eT*eG*eT*eA*eA) [compound 328112]	–	–	–	–	–	TG (triglyceride accumulation) (adipocytes; [4]): 98.1 percentage of control; TG (triglyceride accumulation) (adipocytes; [3]): 92 percentage of untreated control (UTC); AP2 mRNA (aP2; [4]): 99.1 percentage of control; AP2 mRNA (aP2; [3]): 73 percentage of untreated control (UTC); HSL mRNA (HSL; [4]): 101.2 percentage of control; HSL mRNA (HSL; [3]): 89 percentage of untreated control (UTC); GLUT4 mRNA (Glut4; [4]): 122.5 percentage of control; GLUT4 mRNA (Glut4; [3]): 97 percentage of untreated control (UTC); PPAR gamma mRNA (PPARγ; [4]): 102.4 percentage of control; PPAR gamma mRNA (PPARγ; [3]): 79 percentage of untreated control (UTC)
348117 (GAACCCACAAUCCCUGGCUUA; all 2'-MOE, all phosphorothioate, methylation of C and T or U not given here) [compound 348117]	66 percentage of untreated control (UTC)	70 percentage of untreated control (UTC)	55 percentage of untreated control (UTC)	73 percentage of untreated control (UTC)	65 percentage of untreated control (UTC)	–
344613 (ACACCAAUGCCCUAGGGGAUGCG; anti-miR; all 2'-MOE, all phosphorothioate, methylation of C and T or U not given here) [compound 344613]	47 percentage of untreated control (UTC)	55 percentage of untreated control (UTC)	46 percentage of untreated control (UTC)	38 percentage of untreated control (UTC)	57 percentage of untreated control (UTC)	–
328094 (antisense eT*eT*eG*eT*eA*eA*eG*e[5mC]*eA*eG*eT*eT*eT*eT*eG*eT*eT*eG*eA*e[5mC]*eA) [compound 328094]	65 percentage of untreated control (UTC)	68 percentage of untreated control (UTC)	74 percentage of untreated control (UTC)	83 percentage of untreated control (UTC)	94 percentage of untreated control (UTC)	–
TNF-alpha	–	–	–	–	–	TG (triglyceride accumulation) (adipocytes; [1]): 10.0 percentage of control; TG (triglyceride accumulation) (adipocytes; [4]): 14.5 percentage of control; AP2 mRNA (aP2; [1]): 5.5 percentage of control; AP2 mRNA (aP2; [4]): 9.6 percentage of control; HSL mRNA (HSL; [1]): 0.7 percentage of control; HSL mRNA (HSL; [4]): 3.1 percentage of control; GLUT4 mRNA (Glut4; [1]): 0.5 percentage of control; GLUT4 mRNA (Glut4; [4]): 1.9 percentage of control; PPAR gamma mRNA (PPARγ; [1]): 18.8 percentage of control; PPAR gamma mRNA (PPARγ; [4]): 27.9 percentage of control
328092 (antisense eG*eG*eT*eA*eG*eG*eT*eG*eG*eA*eA*eT*eA*e[5mC]*eT*eA*eT*eA*eA*e[5mC]*eA) [compound 328092]	134 percentage of untreated control (UTC)	74 percentage of untreated control (UTC)	80 percentage of untreated control (UTC)	78 percentage of untreated control (UTC)	86 percentage of untreated control (UTC)	–
346691 (GCAGAAGCAUUUCCACACAC; all 2'-MOE, all phosphorothioate, methylation of C and T or U not given here) [compound 346691]	56 percentage of untreated control (UTC)	69 percentage of untreated control (UTC)	69 percentage of untreated control (UTC)	64 percentage of untreated control (UTC)	79 percentage of untreated control (UTC)	–
